From the NIST ThermoML archive (doi:10.1016/j.jct.2009.05.008)
± gives the expanded uncertainty stated by the source.

Tests used:
[1] = 298.15 K; 101.33 kPa; Liquid; Vibrating tube method
[2] = refractive index (Na D-line) (dimensionless); conditions: 298.15 K; 101.33 kPa; Liquid; Standard Abbe refractometry

## CCOS(=O)(=O)[O-].CC[n+]1cccc(C)c1 [1-ethyl-3-methylpyridinium ethylsulfate]
[1]
  mass density: 1219.61 ± 1.1 kg/m3
[2]
  refractive index: 1.50591 ± 0.00075
